Here are results for 11 compounds from ChEMBL document CHEMBL3991601, “The target landscape of clinical kinase drugs” (Science, 2017).

In experiment [1] the target is Serine/threonine-protein kinase MRCK alpha (Homo sapiens, UniProt Q5VT25).
Experiment [2] addresses Tyrosine-protein kinase Fyn (Homo sapiens, UniProt P06241).
For experiment [3], the target named is GTP-binding protein 4 (Homo sapiens, UniProt Q9BZE4).
Experiment [4] concerns the target T1, Interleukin-1 receptor-associated kinase 3 (Homo sapiens, UniProt Q9Y616).
T1 sequence (Q9Y616 whole entry): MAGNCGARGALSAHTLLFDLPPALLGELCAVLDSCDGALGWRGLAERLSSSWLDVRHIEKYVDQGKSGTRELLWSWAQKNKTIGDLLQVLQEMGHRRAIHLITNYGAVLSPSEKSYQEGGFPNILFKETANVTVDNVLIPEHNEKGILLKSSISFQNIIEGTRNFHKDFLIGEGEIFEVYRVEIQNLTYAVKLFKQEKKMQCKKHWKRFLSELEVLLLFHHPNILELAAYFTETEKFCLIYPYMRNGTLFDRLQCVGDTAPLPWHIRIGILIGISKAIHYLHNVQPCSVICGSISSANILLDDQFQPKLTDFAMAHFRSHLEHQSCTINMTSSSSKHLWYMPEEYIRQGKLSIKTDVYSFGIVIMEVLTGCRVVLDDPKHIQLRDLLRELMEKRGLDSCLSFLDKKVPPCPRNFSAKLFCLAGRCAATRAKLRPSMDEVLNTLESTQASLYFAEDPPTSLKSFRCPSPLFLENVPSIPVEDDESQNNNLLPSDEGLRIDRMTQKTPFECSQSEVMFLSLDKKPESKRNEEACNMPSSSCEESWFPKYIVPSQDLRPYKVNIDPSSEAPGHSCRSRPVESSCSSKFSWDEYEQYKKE

Experiment [5] addresses T2, Interleukin-1 receptor-associated kinase 4 (Homo sapiens, UniProt Q9NWZ3).
T2 sequence (Q9NWZ3 whole entry): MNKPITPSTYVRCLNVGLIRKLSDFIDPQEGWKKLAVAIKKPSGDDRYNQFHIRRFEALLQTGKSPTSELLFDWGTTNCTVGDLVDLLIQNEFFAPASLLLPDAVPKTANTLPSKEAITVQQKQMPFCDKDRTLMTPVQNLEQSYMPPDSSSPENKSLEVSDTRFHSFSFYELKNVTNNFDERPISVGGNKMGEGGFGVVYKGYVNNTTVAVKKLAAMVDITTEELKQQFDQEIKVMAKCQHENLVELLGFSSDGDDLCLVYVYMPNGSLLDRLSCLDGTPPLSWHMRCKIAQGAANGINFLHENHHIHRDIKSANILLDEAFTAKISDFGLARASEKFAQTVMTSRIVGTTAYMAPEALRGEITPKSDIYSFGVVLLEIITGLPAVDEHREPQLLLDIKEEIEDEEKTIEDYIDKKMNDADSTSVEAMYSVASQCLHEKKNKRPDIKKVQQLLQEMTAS

For experiment [6], the target named is Mitogen-activated protein kinase 1 (Homo sapiens, UniProt P28482).
In experiment [7] the target is Mitogen-activated protein kinase 14 (Homo sapiens, UniProt Q16539).
The target in experiment [8] is Mitogen-activated protein kinase 9 (Homo sapiens, UniProt P45984).
The target of experiment [9] is High affinity nerve growth factor receptor (Homo sapiens, UniProt P04629).
Experiment [10] concerns the target Serine/threonine-protein kinase SIK3 (Homo sapiens, UniProt Q9Y2K2).
For experiment [11], the target named is T3, TGF-beta receptor type-1 (Homo sapiens, UniProt P36897).
T3 sequence (P36897 whole entry): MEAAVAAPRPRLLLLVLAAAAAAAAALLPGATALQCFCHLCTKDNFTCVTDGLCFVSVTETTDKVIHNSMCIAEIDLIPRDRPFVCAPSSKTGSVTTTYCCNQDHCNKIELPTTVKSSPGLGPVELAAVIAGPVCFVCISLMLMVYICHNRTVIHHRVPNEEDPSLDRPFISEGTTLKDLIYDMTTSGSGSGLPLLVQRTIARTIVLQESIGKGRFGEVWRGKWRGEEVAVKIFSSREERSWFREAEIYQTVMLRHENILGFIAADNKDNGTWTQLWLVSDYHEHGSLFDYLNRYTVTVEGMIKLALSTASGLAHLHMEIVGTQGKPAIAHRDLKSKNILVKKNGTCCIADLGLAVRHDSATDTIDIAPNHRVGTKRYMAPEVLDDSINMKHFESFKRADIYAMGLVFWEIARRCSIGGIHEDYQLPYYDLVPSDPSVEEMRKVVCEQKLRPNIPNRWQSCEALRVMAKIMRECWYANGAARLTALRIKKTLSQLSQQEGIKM

Structures are written as SMILES. Calls of active or inactive are those of the source. Rule as the data show it, for most assays here: actives have a measured Kd and inactives only a lower limit.

Usually Kd stands for the concentration at which binding is half-saturated.
Also: in the data inactive means no Kd found up to 30 µM.

Chain of Serine/threonine-protein kinase MRCK alpha (Q5VT25 whole entry): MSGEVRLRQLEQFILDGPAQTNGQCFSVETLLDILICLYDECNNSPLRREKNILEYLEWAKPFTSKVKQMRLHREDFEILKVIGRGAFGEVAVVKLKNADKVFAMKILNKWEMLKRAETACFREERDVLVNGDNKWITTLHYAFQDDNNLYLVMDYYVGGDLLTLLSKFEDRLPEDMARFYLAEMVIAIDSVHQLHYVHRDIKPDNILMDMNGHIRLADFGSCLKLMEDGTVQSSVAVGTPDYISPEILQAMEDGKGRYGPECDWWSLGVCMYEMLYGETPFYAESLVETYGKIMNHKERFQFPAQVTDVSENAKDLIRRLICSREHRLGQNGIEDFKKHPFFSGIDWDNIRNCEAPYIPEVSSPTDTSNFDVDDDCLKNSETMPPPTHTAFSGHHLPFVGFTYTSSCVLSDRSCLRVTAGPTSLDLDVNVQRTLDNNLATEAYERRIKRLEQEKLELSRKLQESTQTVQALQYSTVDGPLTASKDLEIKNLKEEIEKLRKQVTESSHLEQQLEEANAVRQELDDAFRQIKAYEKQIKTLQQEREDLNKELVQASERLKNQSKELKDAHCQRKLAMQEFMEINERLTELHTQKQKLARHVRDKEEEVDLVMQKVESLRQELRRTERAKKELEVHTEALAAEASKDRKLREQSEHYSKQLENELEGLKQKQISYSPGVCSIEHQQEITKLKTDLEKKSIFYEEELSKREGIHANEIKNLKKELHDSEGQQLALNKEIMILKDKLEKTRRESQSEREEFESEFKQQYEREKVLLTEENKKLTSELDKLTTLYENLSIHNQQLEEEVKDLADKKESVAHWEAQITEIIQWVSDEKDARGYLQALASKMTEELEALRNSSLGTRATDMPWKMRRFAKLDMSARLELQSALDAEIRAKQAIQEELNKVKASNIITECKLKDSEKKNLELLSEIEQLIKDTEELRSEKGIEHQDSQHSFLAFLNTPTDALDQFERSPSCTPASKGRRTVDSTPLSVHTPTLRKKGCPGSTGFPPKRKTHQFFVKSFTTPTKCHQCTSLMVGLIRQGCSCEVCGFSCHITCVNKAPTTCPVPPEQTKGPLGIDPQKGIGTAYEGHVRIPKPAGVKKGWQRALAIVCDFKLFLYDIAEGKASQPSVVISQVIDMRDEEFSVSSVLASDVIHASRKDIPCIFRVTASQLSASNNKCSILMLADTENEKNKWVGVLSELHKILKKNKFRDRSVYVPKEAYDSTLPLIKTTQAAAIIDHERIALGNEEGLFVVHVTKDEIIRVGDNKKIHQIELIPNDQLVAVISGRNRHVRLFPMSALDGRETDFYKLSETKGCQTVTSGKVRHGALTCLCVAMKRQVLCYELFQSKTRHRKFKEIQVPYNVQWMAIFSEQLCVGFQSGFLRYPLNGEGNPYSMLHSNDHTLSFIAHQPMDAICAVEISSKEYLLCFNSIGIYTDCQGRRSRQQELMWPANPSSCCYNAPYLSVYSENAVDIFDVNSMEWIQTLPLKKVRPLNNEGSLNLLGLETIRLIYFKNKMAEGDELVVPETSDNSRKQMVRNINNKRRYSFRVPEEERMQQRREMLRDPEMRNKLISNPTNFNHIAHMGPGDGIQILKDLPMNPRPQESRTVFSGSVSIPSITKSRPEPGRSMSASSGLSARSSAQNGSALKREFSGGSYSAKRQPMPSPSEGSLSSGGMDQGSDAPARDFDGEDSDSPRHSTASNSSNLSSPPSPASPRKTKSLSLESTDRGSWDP
Chain of Mitogen-activated protein kinase 14 (Q16539 whole entry): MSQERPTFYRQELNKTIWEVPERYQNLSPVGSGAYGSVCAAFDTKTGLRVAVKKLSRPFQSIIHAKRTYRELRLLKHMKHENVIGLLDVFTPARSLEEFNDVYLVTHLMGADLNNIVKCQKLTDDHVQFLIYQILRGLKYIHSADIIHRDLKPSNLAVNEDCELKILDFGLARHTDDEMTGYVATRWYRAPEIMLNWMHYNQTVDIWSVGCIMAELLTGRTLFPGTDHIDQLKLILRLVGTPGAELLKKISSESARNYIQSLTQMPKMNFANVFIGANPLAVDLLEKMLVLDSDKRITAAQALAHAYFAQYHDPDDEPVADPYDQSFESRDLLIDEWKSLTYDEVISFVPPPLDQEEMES
Chain of High affinity nerve growth factor receptor (P04629 whole entry): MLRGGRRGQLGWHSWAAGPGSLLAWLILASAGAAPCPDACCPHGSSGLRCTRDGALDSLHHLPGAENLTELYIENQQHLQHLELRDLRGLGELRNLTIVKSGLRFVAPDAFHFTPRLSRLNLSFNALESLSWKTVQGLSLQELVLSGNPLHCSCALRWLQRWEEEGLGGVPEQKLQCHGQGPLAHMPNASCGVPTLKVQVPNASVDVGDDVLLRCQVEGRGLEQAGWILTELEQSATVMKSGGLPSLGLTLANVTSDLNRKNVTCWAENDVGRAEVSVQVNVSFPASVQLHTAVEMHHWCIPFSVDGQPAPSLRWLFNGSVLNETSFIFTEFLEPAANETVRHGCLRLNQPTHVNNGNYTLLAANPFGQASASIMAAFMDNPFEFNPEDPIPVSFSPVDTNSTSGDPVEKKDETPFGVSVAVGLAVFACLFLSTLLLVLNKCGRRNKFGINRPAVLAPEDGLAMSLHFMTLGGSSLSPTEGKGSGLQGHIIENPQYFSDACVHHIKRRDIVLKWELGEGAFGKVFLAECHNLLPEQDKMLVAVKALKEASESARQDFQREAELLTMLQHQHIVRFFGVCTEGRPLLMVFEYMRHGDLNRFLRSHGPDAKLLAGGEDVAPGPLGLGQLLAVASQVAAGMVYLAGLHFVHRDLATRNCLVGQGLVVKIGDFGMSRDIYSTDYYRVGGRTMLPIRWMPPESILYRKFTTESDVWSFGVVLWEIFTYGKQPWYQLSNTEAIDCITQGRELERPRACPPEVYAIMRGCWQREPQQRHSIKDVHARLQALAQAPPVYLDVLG
Chain of Mitogen-activated protein kinase 1 (P28482 whole entry): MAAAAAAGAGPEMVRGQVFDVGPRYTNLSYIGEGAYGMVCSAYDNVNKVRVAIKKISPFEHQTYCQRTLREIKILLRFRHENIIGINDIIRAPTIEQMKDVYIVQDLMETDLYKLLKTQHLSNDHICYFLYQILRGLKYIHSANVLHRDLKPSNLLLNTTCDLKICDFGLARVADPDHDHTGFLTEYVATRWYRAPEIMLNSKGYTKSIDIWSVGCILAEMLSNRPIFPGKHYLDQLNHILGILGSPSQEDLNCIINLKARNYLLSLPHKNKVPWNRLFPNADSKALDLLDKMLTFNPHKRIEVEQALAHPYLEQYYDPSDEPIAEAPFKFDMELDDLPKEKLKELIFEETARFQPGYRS
Chain of Mitogen-activated protein kinase 9 (P45984 whole entry): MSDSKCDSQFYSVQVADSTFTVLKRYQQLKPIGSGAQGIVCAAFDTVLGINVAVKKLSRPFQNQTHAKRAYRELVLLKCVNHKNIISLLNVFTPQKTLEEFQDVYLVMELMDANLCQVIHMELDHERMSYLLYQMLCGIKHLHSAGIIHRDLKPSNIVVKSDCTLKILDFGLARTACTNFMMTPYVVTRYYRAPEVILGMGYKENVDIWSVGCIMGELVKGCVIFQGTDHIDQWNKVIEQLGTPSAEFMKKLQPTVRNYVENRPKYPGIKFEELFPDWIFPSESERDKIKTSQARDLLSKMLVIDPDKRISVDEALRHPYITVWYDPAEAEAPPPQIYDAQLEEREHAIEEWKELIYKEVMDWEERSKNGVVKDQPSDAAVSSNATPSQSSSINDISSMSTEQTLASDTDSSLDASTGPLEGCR
Chain of Serine/threonine-protein kinase SIK3 (Q9Y2K2 whole entry): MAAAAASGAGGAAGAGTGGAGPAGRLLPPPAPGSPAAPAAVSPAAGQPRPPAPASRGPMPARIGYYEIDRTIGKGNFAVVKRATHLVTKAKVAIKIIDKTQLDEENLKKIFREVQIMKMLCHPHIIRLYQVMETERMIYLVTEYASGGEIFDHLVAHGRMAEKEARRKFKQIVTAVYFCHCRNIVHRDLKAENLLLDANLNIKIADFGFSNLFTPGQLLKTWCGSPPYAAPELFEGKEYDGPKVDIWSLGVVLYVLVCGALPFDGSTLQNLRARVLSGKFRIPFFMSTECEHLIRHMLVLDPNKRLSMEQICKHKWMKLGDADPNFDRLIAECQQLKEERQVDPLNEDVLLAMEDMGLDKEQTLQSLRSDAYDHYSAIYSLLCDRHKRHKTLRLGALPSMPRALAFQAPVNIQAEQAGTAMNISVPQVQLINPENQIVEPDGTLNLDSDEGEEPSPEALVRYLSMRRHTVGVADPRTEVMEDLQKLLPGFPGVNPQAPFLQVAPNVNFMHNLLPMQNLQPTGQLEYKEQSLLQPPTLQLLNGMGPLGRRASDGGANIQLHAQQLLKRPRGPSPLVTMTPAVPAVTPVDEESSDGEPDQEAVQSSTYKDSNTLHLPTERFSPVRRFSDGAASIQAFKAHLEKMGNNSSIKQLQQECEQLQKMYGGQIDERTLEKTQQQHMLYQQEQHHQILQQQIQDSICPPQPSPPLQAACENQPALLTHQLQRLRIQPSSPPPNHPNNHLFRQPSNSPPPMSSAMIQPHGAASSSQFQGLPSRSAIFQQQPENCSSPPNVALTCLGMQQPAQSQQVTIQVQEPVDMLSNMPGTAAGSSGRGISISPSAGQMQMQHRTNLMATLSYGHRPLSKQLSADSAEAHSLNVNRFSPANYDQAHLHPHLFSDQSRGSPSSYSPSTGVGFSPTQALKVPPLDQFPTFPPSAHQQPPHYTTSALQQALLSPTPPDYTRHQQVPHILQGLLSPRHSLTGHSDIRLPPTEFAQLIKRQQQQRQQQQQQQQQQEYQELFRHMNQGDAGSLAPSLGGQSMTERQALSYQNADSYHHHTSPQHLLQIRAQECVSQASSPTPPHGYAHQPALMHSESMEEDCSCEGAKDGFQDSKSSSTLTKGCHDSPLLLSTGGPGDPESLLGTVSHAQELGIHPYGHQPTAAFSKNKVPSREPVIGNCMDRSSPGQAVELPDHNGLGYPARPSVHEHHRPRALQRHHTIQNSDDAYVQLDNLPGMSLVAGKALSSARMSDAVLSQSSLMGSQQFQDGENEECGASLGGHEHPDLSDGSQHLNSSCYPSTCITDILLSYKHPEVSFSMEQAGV

Regarding `CO[C@H]1C[C@@H]2CC[C@@H](C)[C@@](O)(O2)C(=O)C(=O)N2CCCC[C@H]2C(=O)O[C@H]([C@H](C)C[C@@H]2CC[C@@H](OP(C)(C)=O)[C@H](OC)C2)CC(=O)[C@H](C)/C=C(\C)[C@@H](O)[C@@H](OC)C(=O)[C@H](C)C[C@H](C)/C=C/C=C/C=C/1C` [RIDAFOROLIMUS], the Kd in [1], in [2], in experiment [3], in experiment [4], in experiment [5] and in experiment [6] was > 30 µM (inactive) throughout. Further, the Kd in experiment [7], in experiment [8], in experiment [9], in [10] and in experiment [11] was > 30 µM (inactive) throughout.
With `N#CC1(c2ccc(NC(=O)c3cccnc3NCc3ccncc3)cc2)CCCC1` [RIVOCERANIB], the Kd in [1], in [2], in experiment [3], in experiment [4], in experiment [5] and in [6] was > 30 µM (inactive) in each case. Besides, the Kd in experiment [7], in [8], in experiment [9], in [10] and in experiment [11] was > 30 µM (inactive) each time.
With `O=c1[nH]ccc2cc(OC3CCNCC3)ccc12` [SAR-407899 FREE BASE], the Kd was 0.01 µM (active) in experiment [1]; > 30 µM (inactive) in [2]; > 30 µM (inactive) in experiment [3]; > 30 µM (inactive) in experiment [4]; > 30 µM (inactive) in experiment [5]; > 30 µM (inactive) in [6]. Moreover, the Kd in experiment [7], in [8], in experiment [9], in experiment [10] and in [11] was > 30 µM (inactive) throughout.
As for `Cn1cc(-c2cnn3c(N)c(Br)c([C@@H]4CCCNC4)nc23)cn1` [SCH-900776], the Kd in experiment [1] was > 30 µM (inactive); in experiment [2], > 30 µM (inactive); in experiment [3] it was > 30 µM (inactive); in experiment [4] it was > 30 µM (inactive); in experiment [5], 4.01 µM; in [6], > 30 µM (inactive). Also, the Kd in [7], in experiment [8], in [9], in experiment [10] and in experiment [11] was > 30 µM (inactive) in each case.
On to `CO[C@H]1C[C@@H]2CC[C@@H](C)[C@@](O)(O2)C(=O)C(=O)N2CCCC[C@H]2C(=O)O[C@H]([C@H](C)C[C@@H]2CC[C@@H](O)[C@H](OC)C2)CC(=O)[C@H](C)/C=C(\C)[C@@H](O)[C@@H](OC)C(=O)[C@H](C)C[C@H](C)/C=C/C=C/C=C/1C` [SIROLIMUS], for which the Kd in experiment [1], in [2], in experiment [3], in experiment [4], in [5] and in [6] was > 30 µM (inactive) in each case. In addition, the Kd in [7], in experiment [8], in experiment [9], in [10] and in experiment [11] was > 30 µM (inactive) throughout.
On to `CO[C@H]1C[C@@H]2CC[C@@H](C)[C@@](O)(O2)C(=O)C(=O)N2CCCC[C@H]2C(=O)O[C@H]([C@H](C)C[C@@H]2CC[C@@H](OC(=O)C(C)(CO)CO)[C@H](OC)C2)CC(=O)[C@H](C)/C=C(\C)[C@@H](O)[C@@H](OC)C(=O)[C@H](C)C[C@H](C)/C=C/C=C/C=C/1C` [TEMSIROLIMUS], for which the Kd in experiment [1], in experiment [2], in experiment [3], in [4], in experiment [5] and in experiment [6] was > 30 µM (inactive) in each case. Further, the Kd in [7], in experiment [8], in experiment [9], in [10] and in experiment [11] was > 30 µM (inactive) throughout.
For `COc1cc2c(Nc3ccc(Cl)c(Cl)c3F)ncnc2cc1OC[C@@H]1C[C@@H]2CN(C)C[C@@H]2C1` [TESEVATINIB], the Kd in experiment [1] was > 30 µM (inactive); in [2] it was > 30 µM (inactive); in experiment [3], > 30 µM (inactive); in [4], > 30 µM (inactive); in [5] it was 1.17 µM (active); in [6], > 30 µM (inactive). For the same compound, the Kd in experiment [7] was > 30 µM (inactive); in experiment [8] it was > 30 µM (inactive); in experiment [9], > 30 µM (inactive); in experiment [10], > 30 µM (inactive); in experiment [11] it was 3.32 µM (active).
Take `O=C(Cc1ccc(-c2ccc(OCCN3CCOCC3)cc2)cn1)NCc1ccccc1` [TIRBANIBULIN]: the Kd in [1], in experiment [2], in experiment [3], in experiment [4], in experiment [5] and in experiment [6] was > 30 µM (inactive) each time. The Kd in experiment [7], in experiment [8], in experiment [9], in [10] and in experiment [11] was > 30 µM (inactive) in each case.
As for `O=C1NC(=O)[C@@H](c2cn3c4c(cccc24)CCC3)[C@@H]1c1c[nH]c2ccccc12` [TIVANTINIB], the Kd in [1], in experiment [2], in [3], in experiment [4], in experiment [5] and in [6] was > 30 µM (inactive) in each case. Besides, the Kd in [7], in [8], in [9], in [10] and in experiment [11] was > 30 µM (inactive) in each case.
Take `C[C@@H](NC(=O)c1ncnc(N)c1Cl)c1ncc(C(=O)Nc2cc(C(F)(F)F)c(Cl)cn2)s1` [TOVORAFENIB]: the Kd in experiment [1], in experiment [2], in experiment [3], in [4], in [5] and in experiment [6] was > 30 µM (inactive) each time. Also, the Kd is 0.358 µM (active) in experiment [7]; > 30 µM (inactive) in [8]; > 30 µM (inactive) in experiment [9]; > 30 µM (inactive) in experiment [10]; > 30 µM (inactive) in experiment [11].
With `Cc1cc(Nc2ncnc3ccc(NC4=NC(C)(C)CO4)cc23)ccc1Oc1ccn2ncnc2c1` [TUCATINIB], the Kd in experiment [1], in [2], in [3], in experiment [4], in experiment [5] and in experiment [6] was > 30 µM (inactive) each time. Moreover, the Kd in experiment [7], in experiment [8], in [9], in [10] and in [11] was > 30 µM (inactive) in each case.
